Source: US10857119B2, “Composition containing monoacetyldiacylglycerol compound as active ingredient for inhibiting blood cancer or metastasis” (ENZYCHEM LIFESCIENCES CORPORATION, priority 2013, dated 2020)

How the values were obtained:
[1] = GLP toxicity test; cited from earlier work
rat IL-4 = experiment: IL-4 secretion by ELISA in RBL-2H3 cells; format: cell-based; conditions: 10 μg/Ml EC-18
Procedure: The cells were treated with 0.1 μg/Ml to 10 μg/Ml EC-18 for 1 hour and antigen was processed. After the incubation for 18 hours at 37° C., the cell was removed to obtain a supernatant. The quantification of rat IL-4 which was present in the cell culture medium of RBL-2H3 cells was made by carrying out enzyme-linked immunosorbent assay (ELISA) according to the protocol indicated by the manufacturer using commercially purchasable monoclonal antibody (mAb) (BD Biosciences).

In the case of `CCCCC/C=C\C/C=C\CCCCCCCC(=O)OC(COC(C)=O)COC(=O)CCCCCCCCCCCCCCC` (centres unmarked) [EC-18, 1-palmitoyl-2-linoleoyl-3-acetylglycerol], the toxicity [1] is listed as “no-toxicity” and the inhibition at 10 µg/mL (rat IL-4) is listed as at least 60%.
